Blank lines part the entries; values can stand above or below the molecule they belong to.
Legend:
[1] = test system: chick chorioallantoic membrane (CAM); experiment: Chick CAM angiogenesis induced by soluble RGD collagen peptides; type: in vivo
Procedure: (§1) The chick chorioallantoic membrane (CAM) assays were carried out with some modifications (19). For all experiments CAMs of 10-day-old chick embryos obtained from Charles River (North Franklin, Conn.) were separated from the shell membrane. Filter discs either non-treated (inflammation assays) pretreated (angiogenesis assays) with cortisone acetate (3.0 mg/ml) containing RPMI only or FGF-2 (40 ng). CAMs were either non-treated or treated topically with Mab XL313, XL166 or a non-specific control antibody (10 μg/embryo every 24 h for three consecutive treatments). […] At the end of the incubation period the embryos were sacrificed and the CAM tissues were analyzed. Angiogenesis was quantified by counting the number of angiogenic branching blood vessels within the area of the filter disc. The angiogenic index was determined by subtracting the mean number of blood vessel branch points from untreated CAMs from each experimental condition. Eight to twelve embryos were used per condition and experiments were repeated at least three times.

YAP = experiment: Nuclear YAP in P-2 stimulated endothelial cells with Src or P38MAPK inhibitor; type: cell-based, human; conditions: inhibitor 10 μM; as compared to control; FIG. 8E, 8F
Procedure: (§2) Endothelial cells (HUVECs or HRMVECs) were incubated in serum free media with 1 mM MgCl2, 0.2 mM MnCl2 in the presence of a Src inhibitor, PP2, (10 μM) a P38MAPK inhibitor, SB202190 (10 μM) or vehicle only (DMSO) for 10 min at 37° C. Treated cells were then seeded on to immobilized P-1 and P-2 and lysates were collected at 15 min.
(§3) Whole cell and CAM tissue lysates were collected in RIPA buffer supplemented with 1× protease inhibitor and 1× phosphatase inhibitor and were run on polyacrylamide gels using denaturing conditions. Prior to loading the gels, 6× sample buffer was added to each of the lysates (final concentration 1×) and boiled for five minutes. Twenty to 50 μg of total protein were loaded into each lane. […] Gels were run at 60 volts (v) until the dye front passed through the stacking gel, and then the voltage was increased to 100V for the remainder of the separation. Precision Plus protein standards (Bio-Rad) were used to visualize migration. Protein was transferred to nitrocellulose membranes using a wet tank system and blocked for 1 h using 10% non-fat dried milk in tris-buffered saline with 0.01% Tween-20 (TBS-T). […] Membranes were washed 3 times in TBS-T for five minutes. Blots were then incubated with HRP conjugated secondary antibodies (1:15000) in 1% non-fat milk in TBS-T for 1 h. […] Western blot bands were quantified using Image J software based on pixel intensity.

β3-integrin = biological target: T1, β3-integrin (Homo sapiens, UniProt P05106+P06756); experiment: β3-integrin phosphorylation in endothelial cells attached to collagen peptides (Western blot); type: cell-based; conditions: Src inhibitor PP2 10 μM; FIG. 7E
T1 construct: endogenous in cells; host or cells: HUVEC
Procedure: as §2, §3

P38MAPK = experiment: Phosphorylated P38MAPK in HUVECs attached to collagen peptides (Western blot); type: cell-based, human; conditions: Src inhibitor PP2 10 μM; FIG. 7F
Procedure: as §2, §3

[2] = test system: chick chorioallantoic membrane (CAM); experiment: Chick CAM inflammation assay, FGF-2 induced, no cortisone acetate; type: in vivo; conditions: FGF-2 induced; vs no treatment or control antibody; FIG. 3E
Procedure: The chick chorioallantoic membrane (CAM) assays were carried out with some modifications (19). For all experiments CAMs of 10-day-old chick embryos obtained from Charles River (North Franklin, Conn.) were separated from the shell membrane. Filter discs either non-treated (inflammation assays) pretreated (angiogenesis assays) with cortisone acetate (3.0 mg/ml) containing RPMI only or FGF-2 (40 ng). CAMs were either non-treated or treated topically with Mab XL313, XL166 or a non-specific control antibody (10 μg/embryo every 24 h for three consecutive treatments). For peptide induction experiments, CAMs were stimulated with 100 ng/ml of the RGD peptides (P-1, P-2, P-C) in the presence or absence of the P38MAPK inhibitor, SB202190 (10 μM). At the end of the incubation period the embryos were sacrificed and the CAM tissues were analyzed. Angiogenesis was quantified by counting the number of angiogenic branching blood vessels within the area of the filter disc. The angiogenic index was determined by subtracting the mean number of blood vessel branch points from untreated CAMs from each experimental condition. Eight to twelve embryos were used per condition and experiments were repeated at least three times.
CAMs examined for accumulation of granulation tissue were harvested, fixed in 4% PFA and paraffin embedded and sectioned (4 μm) and stained with Giemsa. CAM tissues analyzed via immunofluorescence were harvested, embedded with OCT, snap frozen and sectioned ([…]). Frozen sections were fixed in 50% methanol/50% acetone, air dried and blocked with 2.5% BSA for 1 h at 37° C. For expression of the XL313 and XL166 epitopes as well as monocyte/macrophages, FGF-2 stimulated CAM tissues were stained with Mabs XL313, XL166 (50 μg/ml) or KUL1 (1:250) and then incubated with Alexa-488 labeled secondary antibodies (1:2000 dilution). […] Using a similar strategy, sections of RGD peptide-treated CAM tissues were analyzed for phosphorylated-P38MAPK in angiogenic vessels by co-incubation of anti-phospho-P38MAPK (1:50) and anti-vWf (1:500) antibodies. […]

[3] = test system: endothelial cells transduced with YAP specific or non-specific shRNAs; experiment: Growth of shRNA transduced endothelial cells with soluble RGD peptides; type: cell-based, human; conditions: non-specific shRNA; FIG. 8G
Procedure: (§4) HUVECs (WT, shYAP1 or control transfected) or HRMVECs were plated at 2,000 cells per well with complete EGM-2 media containing 2.0% FBS in the absence or presence of P-1, P-2 or P-C (100 ng/ml) and allowed to grow for 24 hours. Cell growth was monitored using a BrdU or MMT assay kits according to manufacturer's instructions. All assays were completed at least three times in triplicate wells.
Raw cells were transfected with 1 μg of HuSH shRNA plasmids for collagen type I, alpha 2 using Amaxa cell line nucleofector kit V (program #T024). Constructs expressing 21-nucleotide short hairpin RNAs (shRNA) targeting human YAP (shYAP) or non-targeting control (shNT, Sigma-Aldrich, SHC002) were used. Humantargeting shYAP1 lentiviral shRNA was obtained from the Thermo Scientific RNAi consortium (TRCN0000107625). Constructs were packaged into lentivirus, pseudotyped with the vesicular stomatitis virus glycoprotein. Transduction was performed by incubating cells with lentivirus, and stably transduced cells were subsequently used for studies. All cell lines were verified by morphology and mouse and human YAP-specific PCR. […] Endothelial cells were certified mycoplasma-negative by PCR (Lonza), and primary cell cultures were used within the indicated passage numbers. Cells were transduced and selected using puromycin.

HRMVEC = experiment: Endothelial cell proliferation with soluble RGD peptides; type: cell-based, human; conditions: 100 ng/ml, 24 hours; FIG. 8D
Procedure: as §4

HUVEC = experiment: as above; type: cell-based, human; conditions: 100 ng/ml, 24 hours; FIG. 8C
Procedure: as §4

[4] = test system: chick chorioallantoic membrane (CAM); experiment: Chick CAM inflammation induced by soluble RGD collagen peptides; type: in vivo; conditions: FIG. 5D
Procedure: as §1

Fak = Fak phosphorylation in endothelial cells attached to collagen peptides; type: cell-based, human; conditions: serum free conditions
Procedure: Whole cell and CAM tissue lysates were collected in RIPA buffer supplemented with 1× protease inhibitor and 1× phosphatase inhibitor and were run on polyacrylamide gels using denaturing conditions. Prior to loading the gels, 6× sample buffer was added to each of the lysates (final concentration 1×) and boiled for five minutes. Twenty to 50 μg of total protein were loaded into each lane. For detection of proteins larger than 50 kD, 10% gels were used; for proteins smaller than 50 kD 15% gels were used. Gels were run at 60 volts (v) until the dye front passed through the stacking gel, and then the voltage was increased to 100V for the remainder of the separation. Precision Plus protein standards (Bio-Rad) were used to visualize migration. Protein was transferred to nitrocellulose membranes using a wet tank system and blocked for 1 h using 10% non-fat dried milk in tris-buffered saline with 0.01% Tween-20 (TBS-T). […] Western blot bands were quantified using Image J software based on pixel intensity.

[5] = test system: human umbilical vein endothelial cell (HUVEC); experiment: Cell adhesion to immobilized collagen RGD peptides; type: cell-based; conditions: peptide immobilized 100 μg/ml; FIG. 1A
Procedure: RGD peptides (P-1, P-2, P-3, P-4, P-5, and P-C) were immobilized (100 μg/ml) to wells. HUVEC, HMVEC, HRMVEC, and HDF cells were suspended in adhesion buffer (RPMI containing 1 mM MgCl2, 0.2 mM MnCl2 and 0.5% BSA) and 1×10^5 cells were seeded into the wells in the presence or absence of P4C10, LM609, P1F6 or control antibodies (100 μg/ml). Cells were allowed to attach for 25 min at 37° C. Media containing non-attached cells was aspirated and attached cells were washed with PBS and stained with crystal violet. Cell adhesion was quantified by measuring the optical density of eluted dye. Adhesion assays were completed at least three times with triplicate wells.

[6] = biological target: Denatured collagen (collagen type-I boiled 15 minutes) (UniProt P02452); experiment: cell-based or functional assay
[7] = biological target: Denatured collagen (collagen type-I boiled 15 minutes) (UniProt P02452); experiment: integrin blocking ELISA; denatured collagen wells pre-treated with anti-HU177 (0.1 µg/ml); competitor α10β1 (2.0 µg/ml)
[8] = biological target: Denatured collagen (collagen type-I boiled 15 minutes) (UniProt P02452); experiment: integrin blocking ELISA; denatured collagen wells pre-treated with anti-HU177 (0.1 µg/ml); competitor α2β1 (2.0 µg/ml)
[9] = biological target: integrin αvβ3 on cells (HUVEC endothelial cells, M21 melanoma cells, human T-cells) (human, UniProt P06756 31-1048; P05106 27-788); experiment: cell-based or functional assay
Chain of integrin αvβ3 on cells (HUVEC endothelial cells, M21 melanoma cells, human T-cells) (P06756 31-1048, chain 1 of 2): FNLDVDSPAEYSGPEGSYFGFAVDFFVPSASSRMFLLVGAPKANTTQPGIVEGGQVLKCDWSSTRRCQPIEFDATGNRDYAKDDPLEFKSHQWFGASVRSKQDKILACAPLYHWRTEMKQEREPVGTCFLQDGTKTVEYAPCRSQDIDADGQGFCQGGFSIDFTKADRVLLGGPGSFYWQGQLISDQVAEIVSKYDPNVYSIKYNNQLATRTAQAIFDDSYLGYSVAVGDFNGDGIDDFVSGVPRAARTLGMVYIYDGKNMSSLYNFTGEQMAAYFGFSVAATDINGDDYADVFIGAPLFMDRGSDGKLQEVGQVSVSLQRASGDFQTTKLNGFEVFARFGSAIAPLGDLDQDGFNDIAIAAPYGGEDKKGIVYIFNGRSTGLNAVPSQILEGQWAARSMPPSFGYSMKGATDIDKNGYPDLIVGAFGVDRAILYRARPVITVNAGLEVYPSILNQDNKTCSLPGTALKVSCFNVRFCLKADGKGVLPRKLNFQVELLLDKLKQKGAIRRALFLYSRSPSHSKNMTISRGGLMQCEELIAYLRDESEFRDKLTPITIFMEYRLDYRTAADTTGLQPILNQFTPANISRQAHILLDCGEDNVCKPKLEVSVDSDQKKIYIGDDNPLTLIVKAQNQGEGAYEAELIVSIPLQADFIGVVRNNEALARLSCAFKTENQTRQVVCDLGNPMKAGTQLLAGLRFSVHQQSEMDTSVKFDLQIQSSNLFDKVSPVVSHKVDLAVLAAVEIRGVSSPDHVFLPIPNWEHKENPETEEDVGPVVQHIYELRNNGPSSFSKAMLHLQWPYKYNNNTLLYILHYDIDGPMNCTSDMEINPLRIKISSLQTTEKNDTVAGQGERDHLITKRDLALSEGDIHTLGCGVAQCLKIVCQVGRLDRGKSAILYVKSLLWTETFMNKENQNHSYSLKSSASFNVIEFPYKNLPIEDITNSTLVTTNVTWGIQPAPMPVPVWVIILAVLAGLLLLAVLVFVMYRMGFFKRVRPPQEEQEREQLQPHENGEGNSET
Chain of integrin αvβ3 on cells (HUVEC endothelial cells, M21 melanoma cells, human T-cells) (P05106 27-788, chain 2 of 2): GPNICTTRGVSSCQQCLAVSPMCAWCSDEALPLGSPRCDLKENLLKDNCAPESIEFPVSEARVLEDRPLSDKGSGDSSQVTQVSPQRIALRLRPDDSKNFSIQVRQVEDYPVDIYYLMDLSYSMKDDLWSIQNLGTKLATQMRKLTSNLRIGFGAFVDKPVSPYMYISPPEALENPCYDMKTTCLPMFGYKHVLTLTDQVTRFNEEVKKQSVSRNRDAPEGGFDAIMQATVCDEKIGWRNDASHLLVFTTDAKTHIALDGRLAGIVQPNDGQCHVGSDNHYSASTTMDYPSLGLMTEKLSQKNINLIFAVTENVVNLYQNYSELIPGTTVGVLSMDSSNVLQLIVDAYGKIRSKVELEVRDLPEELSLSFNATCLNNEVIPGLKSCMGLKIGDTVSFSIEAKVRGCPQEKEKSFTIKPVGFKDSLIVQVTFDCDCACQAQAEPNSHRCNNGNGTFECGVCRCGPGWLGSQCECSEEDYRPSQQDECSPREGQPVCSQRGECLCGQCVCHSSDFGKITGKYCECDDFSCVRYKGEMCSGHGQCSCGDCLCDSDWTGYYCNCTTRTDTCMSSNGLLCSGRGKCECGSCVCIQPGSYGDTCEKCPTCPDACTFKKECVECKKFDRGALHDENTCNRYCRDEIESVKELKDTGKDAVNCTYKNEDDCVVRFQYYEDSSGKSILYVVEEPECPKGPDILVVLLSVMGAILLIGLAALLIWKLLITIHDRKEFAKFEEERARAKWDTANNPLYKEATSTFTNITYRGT

T1 sequence (P05106 27-788): as the sequence (P05106 27-788, chain 2 of 2) above
T1 sequence (P06756 31-889 limits assumed): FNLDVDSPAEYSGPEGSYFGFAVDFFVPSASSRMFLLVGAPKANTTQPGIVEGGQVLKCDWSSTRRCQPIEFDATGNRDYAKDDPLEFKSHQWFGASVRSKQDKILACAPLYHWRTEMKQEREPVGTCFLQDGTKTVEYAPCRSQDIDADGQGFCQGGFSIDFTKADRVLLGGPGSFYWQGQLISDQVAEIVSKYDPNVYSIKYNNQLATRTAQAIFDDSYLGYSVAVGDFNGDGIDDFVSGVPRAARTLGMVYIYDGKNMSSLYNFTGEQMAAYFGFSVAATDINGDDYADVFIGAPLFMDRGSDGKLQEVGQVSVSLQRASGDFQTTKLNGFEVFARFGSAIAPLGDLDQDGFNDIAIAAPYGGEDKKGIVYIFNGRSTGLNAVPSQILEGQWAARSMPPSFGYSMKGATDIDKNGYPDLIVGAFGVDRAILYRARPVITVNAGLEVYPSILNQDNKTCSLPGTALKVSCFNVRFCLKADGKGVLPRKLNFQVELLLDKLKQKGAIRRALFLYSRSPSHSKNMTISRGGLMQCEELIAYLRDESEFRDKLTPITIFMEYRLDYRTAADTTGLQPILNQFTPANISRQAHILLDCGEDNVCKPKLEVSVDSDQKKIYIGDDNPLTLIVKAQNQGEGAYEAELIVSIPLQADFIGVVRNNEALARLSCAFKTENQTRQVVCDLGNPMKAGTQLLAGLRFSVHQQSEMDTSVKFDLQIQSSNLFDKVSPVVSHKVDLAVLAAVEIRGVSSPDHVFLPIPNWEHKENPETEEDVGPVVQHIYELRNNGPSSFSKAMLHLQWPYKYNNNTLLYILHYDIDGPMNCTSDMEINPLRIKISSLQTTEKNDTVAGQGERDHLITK
T1 sequence (P06756 891-1048 partner limits assumed): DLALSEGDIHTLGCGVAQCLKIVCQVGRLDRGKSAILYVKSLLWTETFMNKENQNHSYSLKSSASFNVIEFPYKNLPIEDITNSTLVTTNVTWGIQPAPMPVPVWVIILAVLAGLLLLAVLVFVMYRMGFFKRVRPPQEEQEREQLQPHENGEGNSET

Molecule: Oc1ccc(-c2nc(-c3ccncc3)c(-c3ccc(F)cc3)[nH]2)cc1 [P38MAPK inhibitor, SB202190, reference compound]
effect on P-2 induced angiogenesis in vivo ([1]; SB202190 10 μM, FIG. 6F): reduced | reduction of nuclear YAP accumulation following P-2 stimulation (YAP): approximately 50%

β3 phosphorylation following binding to collagen peptide P-2 (β3-integrin): reduced
Molecule: CC(C)(C)n1nc(-c2ccc(Cl)cc2)c2c(N)ncnc21 [Src inhibitor, PP2, reference compound]
reduction of nuclear YAP accumulation following P-2 stimulation (YAP): approximately 50% | P38MAPK phosphorylation following binding to collagen peptide P-2 (P38MAPK): reduced

Molecule: CC(=O)OCC(=O)[C@@]1(O)CC[C@H]2[C@@H]3CCC4=CC(=O)CC[C@]4(C)[C@H]3C(=O)C[C@@]21C [cortisone acetate]
reduction of the percentage of CAMs exhibiting thickening / inflammation [2]: greater than 80%

Molecule: CKGDRGDAPGC [Mab P-1, RGDAPG containing collagen type-I peptide (…) with flanking cysteines]
growth of control transduced endothelial cells with soluble peptide [3]: not | HRMVEC growth with soluble peptide (HRMVEC): minimal effect | HUVEC growth with soluble peptide (HUVEC): minimal effect | CAM inflammation following stimulation with peptide [4]: Minimal evidence of tissue inflammation | induction of CAM angiogenesis as compared to no treatment ([1]; soluble peptide, FIG. 5C): not | Fak phosphorylation following ligation of peptide (Fak): Minimal Fak phosphorylation

Molecule: CRGPRGDQGPC [Mab P-5]
HUVEC adhesion to immobilized peptide [5]: highest levels of adhesion

basal migration of SKOV-3 cells and fibroblasts on denatured collagen [6]: 35 to 38% | decrease in SKOV-3 cell adhesion to denatured collagen [6]: 40% | decrease in fibroblast adhesion to denatured collagen [6]: 50% | percent inhibition of α10β1 binding to denatured collagen [7]: 60% | percent inhibition of α2β1 binding to denatured collagen [8]: 30%
Molecule: Mab HU177 (antibody)

Src phosphorylation in endothelial cells attached to the peptide (Western blot) [9]: ~2 fold | β3-integrin phosphorylation in endothelial cells attached to the peptide (Western blot) [9]: > 3 fold
Molecule: CQGPRGDKGEC [Synthetic collagen RGD containing peptide P-2 (CQGPRGDKGEC)]
